Data set [1] concerns ct-DNA. In words: Competitive displacement of ethidium bromide from DNA (fluorescence). In kind it is binding, calf. Particulars: EB 75 µM, [DNA]b = 30 µM, compound 0-50 µM, 1 h. Here is the method: (§1) For the UV–Vis, fluorescence and circular dichroism assays the concentration of ct-DNA was determined on a Varian Cary 100 Scan spectrophotometer from the absorption at 260 nm and the corresponding molar absorptivity of 6600 M^−1 cm^−1 (nucleobase concentration). The stock solutions of the coordination compounds and the free ligands were prepared in cacodylate/NaCl buffer (1 mM cacodylic acid and 20 mM sodium chloride) at pH 7.25. The final samples contained a DMSO concentration of 0.2%.
Emission intensity of the dyes DNA-intercalator ethidium bromide, EB (λexc = 514 nm) and the minor-groove binder Hoechst 33,258 (λexc = 350 nm) was measured on iHR320 HORIBA JOBIN YVON spectrofluorometer. The samples contained 15 µM (in base pairs) of ct-DNA and 75 µM of EB […] in cacodylate/NaCl buffer. The respective dye was incubated for 30 min with ct-DNA to allow its binding to the biomolecule. Subsequently, increasing amounts of coordination compounds (0–50 µM) were added up to a final volume of 2 mL, and the samples were incubated for 1 h at 37 °C. The fluorescence spectra of all samples were recorded at room temperature. The affinity of the compounds for ct-DNA compared to EB was evaluated through the Stern–Volmer quenching constant Ksv, from Eq. 3:3 I0/I=1+Ksvcompound where I0 and I are the emission intensities in absence and the presence of the compound, respectively.
With the aim to corroborate the binding mode of the coordination compounds with DNA competitive displacement assays were carried out by florescence spectroscopy. The fluorescence of ethidium bromide (EB) increases when it intercalates between DNA base pairs, forming an EB-DNA adduct. Competitive binding assays will lead to a decrease of the fluorescence intensity (λexc = 514 nm; λem = 610 nm) if the interacting molecule is capable of displacing EB from the DNA helix. Solutions containing constant concentrations of DNA (30 µM) and EB (75 µM) were incubated for 30 min. Then the coordination compounds to be tested were added in a concentration in the range of 0–50 µM (corresponding to [complex]/[DNA] ratios between = 0 and 3.3), and fluorescence spectra were recorded after 1 h of incubation.

The subject of data set [2] is ct-DNA. Briefly: Circular dichroism of ct-DNA. In kind it is binding, calf. Particulars: [DNA]b = 50 µM, [complex]/[DNA] 0-2, 1 h 37 °C. On the procedure: as §1
Circular dichroism (CD) spectra were recorded using a JASCO-815 spectropolarimeter, equipped with xenon-arc lamp of 450 W. The sample compartment was air-purged with N2 before use. For the measurements, a quartz cuvette with an optical path of 5 mm was used. A solution of 25 µM (in base pairs) of ct-DNA in cacodylate/NaCl buffer was incubated for 1 h at 37 °C with increasing amounts of coordination compounds (0–50 µM). The CD spectra were recorded at room temperature.
The interaction of small molecules with DNA can modify these CD signals depending on the type of binding. Intercalative interactions increase the intensity of the signals, as the result of an increase of the stability of the B conformation, whereas groove binding or covalent interactions tend to decrease the intensity of these signals, which are moreover displaced. The CD spectra for both ligands and their copper(II) and zinc(II) complexes were obtained at constant concentration of ct-DNA, increasing the complex concentration up to two equivalents ([complex]/[DNA] ratios of 0, 0.2, 0.4, 1, 2) with respect to the nucleobases concentration ([DNA]b = 50 µM).
(Circular dichroism is widely used to follow secondary structure.)

In data set [3] the test system is RH tachyzoites of Toxoplasma gondii. In words: Viability of extracellular tachyzoites, Sytox Green exclusion test. In kind it is cell-based. Here is the method: RH tachyzoites of Toxoplasma gondii were extracted in PBS solution at pH 7.4 from intraperitoneal fluid of infected CD1 mice on the third day of infection and centrifuged for ten minutes at 260g. Purified parasites were used within 4 h after their isolation.
The viability of the parasites was determined from staining with Sytox Green® fluorescent dye exclusion test. Purified tachyzoites (1 × 10^6) were incubated for one hour at room temperature with PBS solutions of the coordination compounds or the free ligands at concentrations of 40, 20, 10, 5, and 2.5 µM (0.1% DMSO), in a volume final of 1 mL. After the incubation time, the samples were centrifuged for 10 min at 250g, the medium was removed and 20 µL of Sytox Green® was added after 15 min of incubation for differentiate dead parasites in a Neubauer chamber. The assays were performed in triplicate. The half maximal inhibitory concentration (IC50) was calculated by Boltzmann regression analysis and expressed as mean ± standard error of three replicates. Based on the results the tachyzoites were incubated under the same conditions with the coordination compounds [Cu(onz)2Cl2] and [Cu(onz)2Br2] at their respective IC50 values, Sytox Green® was then added, and they were observed by fluorescence microscopy. Sulfadiazine was used as positive control.
Viability assays were performed against tachyzoites of Toxoplasma gondii. The RH strain was used to evaluate the effect of different concentrations (namely, 2.5, 5, 10, 20 and 40 µM) of the coordination compounds and the free 5-nitroimidazole against the tachyzoites. The evaluation were performed in PBS buffer (pH 7.4) with Sytox Green® exclusion test, which allows differentiating dead from live tachyzoites, since the intact cell membrane of alive ones is not stained.

For data set [4], the system named is young adult male ICR mice. Briefly: Acute toxicity (LD50), intraperitoneal. Particulars: single dose. In kind it is in vivo, mouse. On the procedure:
For the acute toxicity assays, young adult male ICR mice with an average weight of 28 g and a variation of no more than ± 3 g were used. The handling of the animals was carried out in accordance with the committee for the care and use of laboratory animals (CICUAL) from the Faculty of Chemistry, UNAM.
A stock solution with a concentration of 25 mg mL^−1 of [Cu(onz)2Cl2] and [Cu(onz)2Br2] was prepared with water for injection. In the case of [Cu(onz)2Br2], 0.1% of DMSO was added. For the pharmacological profile three mice were used for each dose of 1, 10 and 100 mg kg^−1 per compound. For the acute toxicity assays five mice were treated for each dose (10, 50, 75 and 100 mg kg^−1) per compound. […] A detailed clinical observation was made 24 h after administration. The doses were administered intraperitoneally. The data obtained were used to calculate the mean lethal dose using the software Prism 13.0 and SPSS 29.0 [37, 38].
Based on the anti-toxoplasma results the medial lethal dose (LD50) for [Cu(onz)2Cl2] and [Cu(onz)2Br2] were determined intraperitoneally using doses of 10, 50, 75 and 100 mg kg^−1 per compound in young adult male ICR mice.

Data set [5] relates to mouse fibroblast L929 cells. Briefly: Cytotoxic activity in healthy host cells. In kind it is cell-based. On the procedure: The IC50 values obtained for [Cu(onz)2Cl2] (210.2 μM) and [Cu(onz)2Br2]
Setting [6] is: 1 h, PBS pH 7.4, mean ± standard error of three replicates, read-out: IC50.
[7] abbreviates: viability vs concentration, read-out: IC50 (Boltzman Fit, Fig. S6).

The structures appear in SMILES notation. Like-named read-outs stand apart in the source and are kept apart here.

Regarding `Cc1ncc([N+](=O)[O-])n1CCCl.Cc1ncc([N+](=O)[O-])n1CCCl.[Br][Cu][Br]` [[Cu(cenz)2Br2]], in the data set with ct-DNA [1], the “Ethidium bromide Ksv” value came to 35000 M⁻¹. In addition, the “effect on CD spectrum of ct-DNA (bands at 275 and 245 nm)” value (shortened to “effect on CD spectrum of ct-DNA”) in the data set on ct-DNA [2] was “decrease of the intensity of the positive and negative bands”.

A word on the IC50: it is the concentration that gives 50% inhibition. Turning to `Cc1ncc([N+](=O)[O-])n1CCCl.Cc1ncc([N+](=O)[O-])n1CCCl.[Cl][Cu][Cl]` [[Cu(cenz)2Cl2]], the half-maximal inhibitory concentration (IC50) in data set [3] (setting [6]) is 30.55 ± 0.25 µM; in data set [3] (setting [7]), 30.6 µM. Moreover, the “effect on CD spectrum of ct-DNA” value with ct-DNA [2] is “decrease of the intensity of the positive and negative bands”.

The term LD50 denotes the dose at which mortality reaches 50%. A low value points to greater toxicity. `Cc1n(CC(O)CCl)c([N+](=O)[O-])c[n+]1[Cu-2]([Br])([Br])[n+]1cc([N+](=O)[O-])n(CC(O)CCl)c1C` (centres unmarked) [[Cu(onz)2Br2]]: the “Ethidium bromide Ksv” value in the data set on ct-DNA [1] stood at 43000 M⁻¹. Moreover, the half-maximal inhibitory concentration (IC50) in data set [3] (setting [6]) was determined as 2.73 ± 0.34 µM; in data set [3] (setting [7]), 2.73 µM; in data set [5] it was 180 µM. Further, the 50% lethal dose (LD50) in data set [4] turned out to be 83.24 mg/kg. Further, the “effect on CD spectrum of ct-DNA” value with ct-DNA [2] is “decrease of the intensity of the positive and negative bands”.

On to `Cc1ncc([N+](=O)[O-])n1CC(O)CCl.Cc1ncc([N+](=O)[O-])n1CC(O)CCl.[Cl-].[Cl-].[Cu+2]` (centres unmarked) [[Cu(onz)2Cl2]], for which, in the data set with ct-DNA [1], the “Ethidium bromide Ksv” value stood at 26000 M⁻¹. The values for the IC50 in data set [3] (setting [6]), in data set [3] (setting [7]) and in data set [5] were 8.49 ± 0.64 µM, 8.49 µM and 210 µM, respectively. In data set [4], this compound registered an LD50 of 49.35 mg/kg. Also, the “effect on CD spectrum of ct-DNA” value in the data set on ct-DNA [2] was “decrease of the intensity of the positive and negative bands”.

In the case of `Cc1ncc([N+](=O)[O-])n1CCCl.Cc1ncc([N+](=O)[O-])n1CCCl.[Br][Zn][Br]` [[Zn(cenz)2Br2]], the “Ethidium bromide Ksv” value with ct-DNA [1] worked out at 1100 M⁻¹. Further, the figures for the half-inhibitory concentration (IC50) in data set [3] (setting [6]) and in data set [3] (setting [7]) were 40 ± 0.96 µM and 40 µM, respectively. The “effect on CD spectrum of ct-DNA” value with ct-DNA [2] is reported as “spectra changes are minor”.

As for `Cc1ncc([N+](=O)[O-])n1CC(O)CCl.Cc1ncc([N+](=O)[O-])n1CC(O)CCl.[Cl][Zn][Cl]` (centres unmarked) [[Zn(onz)2Cl2]], the “Ethidium bromide Ksv” value in the data set with ct-DNA [1] came to 4500 M⁻¹. The “effect on CD spectrum of ct-DNA” value in the data set with ct-DNA [2] was “spectra changes are minor”.

Values taken from PMC11001709, “Anti-toxoplasma activity and DNA-binding of copper(II) and zinc(II) coordination compounds with 5-nitroimidazole-based ligands” (Journal of Biological Inorganic Chemistry, 2023).
